Results published in ChEMBL document CHEMBL5523680, “Small molecule modulators of cystic fibrosis transmembrane conductance regulator (CFTR): Structure, classification, and mechanisms” (Eur J Med Chem, 2024).

Columns and labels:
[1] = biological target: T1, Cystic fibrosis transmembrane conductance regulator (Homo sapiens, UniProt P13569, F508DEL); experiment: Activation of CFTR F508del mutant (unknown origin)
[2] = biological target: T2, Cystic fibrosis transmembrane conductance regulator (Homo sapiens, UniProt P13569, N1303K); experiment: Potentiation of CFTR N1303K mutant (unknown origin) transfected in […] FRT cells in presence of forskolin/VX-770; type: cell-based
T2 sequence (P13569 whole entry N1303K): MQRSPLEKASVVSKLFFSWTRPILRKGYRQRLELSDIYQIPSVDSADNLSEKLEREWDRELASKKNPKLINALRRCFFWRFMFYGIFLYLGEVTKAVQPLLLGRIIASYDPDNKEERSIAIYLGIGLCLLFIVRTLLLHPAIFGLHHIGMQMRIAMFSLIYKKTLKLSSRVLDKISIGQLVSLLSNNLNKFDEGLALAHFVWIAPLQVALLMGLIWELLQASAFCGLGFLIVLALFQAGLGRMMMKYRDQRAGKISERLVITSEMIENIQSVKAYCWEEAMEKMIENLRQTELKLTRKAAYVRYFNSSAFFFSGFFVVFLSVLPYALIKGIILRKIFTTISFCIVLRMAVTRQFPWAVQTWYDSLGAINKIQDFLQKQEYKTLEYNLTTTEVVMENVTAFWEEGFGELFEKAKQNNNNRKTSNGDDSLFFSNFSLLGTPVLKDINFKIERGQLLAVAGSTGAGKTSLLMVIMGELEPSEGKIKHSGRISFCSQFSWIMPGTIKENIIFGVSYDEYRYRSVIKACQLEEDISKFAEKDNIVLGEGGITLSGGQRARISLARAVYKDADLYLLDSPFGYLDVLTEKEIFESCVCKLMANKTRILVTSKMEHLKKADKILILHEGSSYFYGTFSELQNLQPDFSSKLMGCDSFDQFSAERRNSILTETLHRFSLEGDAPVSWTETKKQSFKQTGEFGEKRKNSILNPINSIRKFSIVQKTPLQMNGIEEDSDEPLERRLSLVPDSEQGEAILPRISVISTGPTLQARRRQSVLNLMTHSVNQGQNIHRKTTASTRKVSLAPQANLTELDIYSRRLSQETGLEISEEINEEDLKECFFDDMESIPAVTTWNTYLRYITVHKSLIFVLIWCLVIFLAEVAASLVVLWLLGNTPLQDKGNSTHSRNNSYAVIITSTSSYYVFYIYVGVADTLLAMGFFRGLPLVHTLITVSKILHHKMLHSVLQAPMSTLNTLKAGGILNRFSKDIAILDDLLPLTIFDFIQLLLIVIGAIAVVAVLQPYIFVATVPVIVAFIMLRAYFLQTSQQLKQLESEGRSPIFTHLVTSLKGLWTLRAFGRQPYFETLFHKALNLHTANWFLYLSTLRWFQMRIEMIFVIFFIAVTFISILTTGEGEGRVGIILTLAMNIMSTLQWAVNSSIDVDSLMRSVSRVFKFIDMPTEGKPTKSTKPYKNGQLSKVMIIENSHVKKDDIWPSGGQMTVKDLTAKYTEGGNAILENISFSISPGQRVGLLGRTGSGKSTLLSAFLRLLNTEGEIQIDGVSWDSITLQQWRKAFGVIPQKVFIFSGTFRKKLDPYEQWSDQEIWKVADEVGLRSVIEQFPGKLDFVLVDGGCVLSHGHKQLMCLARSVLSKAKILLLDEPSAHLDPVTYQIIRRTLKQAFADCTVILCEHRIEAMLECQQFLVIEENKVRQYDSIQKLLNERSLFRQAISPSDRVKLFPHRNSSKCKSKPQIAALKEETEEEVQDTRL

[3] = biological target: Cystic fibrosis transmembrane conductance regulator (Homo sapiens, UniProt P13569, W1282X); experiment: Potentiation of CFTR W1282X mutant (unknown origin) transfected in […] FRT cells in presence of forskolin/VX-770; type: cell-based
[4] = test system: Cystic fibrosis transmembrane conductance regulator (Homo sapiens), P13569 [G551D]; experiment: Potentiation of CFTR G551D mutant (unknown origin) expressed in FRT cells assessed as increase in chloride current in presence of VX-770 relative to control; type: cell-based; conditions: filed as activator
Sequence of Cystic fibrosis transmembrane conductance regulator (Homo sapiens), P13569 [G551D] (P13569 whole entry G551D): as the sequence (P13569 whole entry N1303K) above, with G551D, K1303N counted along it

[5] = biological target: T1, Cystic fibrosis transmembrane conductance regulator; experiment: Potentiation of CFTR F508del mutant (unknown origin) in FRT cells assessed as rescue of CFTR mutant incubated for 24 hrs in presence of VX-770; type: cell-based
[6] = biological target: T1, Cystic fibrosis transmembrane conductance regulator; experiment: Potentiation of CFTR F508del mutant (unknown origin) expressed in NIH3T3 cells; type: cell-based
[7] = biological target: Cystic fibrosis transmembrane conductance regulator (Homo sapiens, UniProt P13569, G551D); experiment: Potentiation of CFTR G551D mutant (unknown origin) expressed in FRT cells; type: cell-based
Sequence of Cystic fibrosis transmembrane conductance regulator (Homo sapiens, UniProt P13569, G551D) (P13569 whole entry G551D): as the sequence (P13569 whole entry N1303K) above, with G551D, K1303N counted along it

[8] = biological target: T1, Cystic fibrosis transmembrane conductance regulator; experiment: Corrector activity at […] CFTR F508del mutant (unknown origin) expressed in BHK cells assessed as increase in chloride secretion […]; type: cell-based
[9] = biological target: T2, Cystic fibrosis transmembrane conductance regulator; experiment: Potentiation of CFTR N1303K mutant (unknown origin) expressed in FRT cells assessed as increase in CFTR mutant activity; type: cell-based

T1 sequence (P13569 as listed by the source): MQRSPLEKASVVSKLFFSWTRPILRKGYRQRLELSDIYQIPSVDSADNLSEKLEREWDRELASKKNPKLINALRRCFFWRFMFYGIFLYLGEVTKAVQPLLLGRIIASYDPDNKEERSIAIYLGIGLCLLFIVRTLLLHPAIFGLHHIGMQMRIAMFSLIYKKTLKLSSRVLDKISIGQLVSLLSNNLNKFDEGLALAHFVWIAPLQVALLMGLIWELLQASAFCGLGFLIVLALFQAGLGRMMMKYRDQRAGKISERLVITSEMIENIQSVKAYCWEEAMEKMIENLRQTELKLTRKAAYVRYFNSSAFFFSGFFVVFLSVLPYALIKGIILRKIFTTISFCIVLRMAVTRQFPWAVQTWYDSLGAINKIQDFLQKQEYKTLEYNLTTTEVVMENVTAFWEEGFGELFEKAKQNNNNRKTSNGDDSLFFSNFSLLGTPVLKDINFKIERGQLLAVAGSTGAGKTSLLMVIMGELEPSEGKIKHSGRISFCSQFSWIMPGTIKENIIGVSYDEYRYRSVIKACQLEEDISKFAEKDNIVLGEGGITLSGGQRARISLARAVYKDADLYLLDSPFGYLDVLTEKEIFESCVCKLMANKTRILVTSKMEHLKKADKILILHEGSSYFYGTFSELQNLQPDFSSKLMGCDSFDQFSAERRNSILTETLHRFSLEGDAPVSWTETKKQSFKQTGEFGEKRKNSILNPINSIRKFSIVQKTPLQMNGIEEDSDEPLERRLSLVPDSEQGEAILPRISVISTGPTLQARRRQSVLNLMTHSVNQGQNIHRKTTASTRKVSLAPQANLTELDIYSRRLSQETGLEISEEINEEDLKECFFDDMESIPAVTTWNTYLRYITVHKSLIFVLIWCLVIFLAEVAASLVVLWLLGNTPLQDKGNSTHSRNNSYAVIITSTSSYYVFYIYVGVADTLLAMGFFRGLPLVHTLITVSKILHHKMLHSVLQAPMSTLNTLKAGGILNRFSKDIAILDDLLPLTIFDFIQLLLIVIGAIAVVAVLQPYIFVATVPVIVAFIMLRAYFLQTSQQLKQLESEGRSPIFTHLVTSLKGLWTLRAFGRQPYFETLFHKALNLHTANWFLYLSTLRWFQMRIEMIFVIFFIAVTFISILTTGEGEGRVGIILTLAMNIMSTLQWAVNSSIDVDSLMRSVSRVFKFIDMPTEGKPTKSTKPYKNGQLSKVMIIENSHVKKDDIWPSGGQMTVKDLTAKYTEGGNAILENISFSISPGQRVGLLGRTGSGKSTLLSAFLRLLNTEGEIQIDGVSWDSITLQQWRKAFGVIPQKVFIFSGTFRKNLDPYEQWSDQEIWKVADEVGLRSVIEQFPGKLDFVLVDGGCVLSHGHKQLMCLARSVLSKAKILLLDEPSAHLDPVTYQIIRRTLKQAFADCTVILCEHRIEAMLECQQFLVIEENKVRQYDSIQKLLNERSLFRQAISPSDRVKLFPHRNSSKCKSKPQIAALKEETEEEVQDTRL

Which EC50 [1] does the source give for `OC(C1=CNNN1c1ccc(Br)cc1)c1ccccc1Br` (stereo unspecified) here?
Its EC50 is 4200 nM.

What does the source list for `CCCCN1CC(S(=O)(=O)Nc2ccc(CC)cc2)c2cccnc21` (stereo unspecified)?
EC50 [2]: 1900 nM; EC50 [3]: 1000 nM; Activity [4]: 65%

`Cc1ncccc1CNC(=O)c1ccc2c(c1)CC[C@@H]1C[C@@](O)(CCC(F)(F)F)CC[C@@]21Cc1ccccc1` was tested. Which EC50 [5] did it give?
Its EC50 is 400 nM.

`CC(C)(CO)c1cc2cc(NC(=O)C3(c4ccc5c(c4)OC(F)(F)O5)CC3)c(F)cc2n1C[C@@H](O)CO` [TEZACAFTOR] was tested. Which EC50 [6] did it give?
Its EC50 is 1100 nM.

How did the EC50 [7] turn out when `O=C(Nc1ccc2cc[nH]c2c1)c1c[nH]c2ccccc2c1=O` was run?
Its EC50 is 100 nM.

How did the EC50 [6] turn out when `COc1ccc(S(=O)(=O)N2CCN(C(C)c3nc(OC4CCCCC4)c4ccccc4n3)CC2)cc1` (stereo unspecified) was run?
The EC50 was 3300 nM.

What does the source list for `O=C(Nc1ncc(Cc2ccccc2Cl)s1)C(c1ccccc1)c1ccccc1`?
EC50 [8]: 81 nM; EC50 [6]: 7000 nM

`OC(C1=NC(c2ccc(Br)cc2)NN1)c1ccc(Br)cc1` (stereo unspecified) was tested. Which EC50 [1] did it give?
Its EC50 is 2700 nM.

`OCc1cccc(N2C=CN(c3ccccc3)N2)c1` was tested. Which EC50 [1] did it give?
Its EC50 is 1900 nM.

Which EC50 [1] does the source give for `OC(C1=NC(c2ccc(Br)cc2)NN1)c1ccccc1Br` (stereo unspecified) here?
Its EC50 is 3000 nM.

How did the EC50 [9] turn out when `O=c1cc(-c2ccc(O)cc2)oc2cc(O)cc(O)c12` [APIGENIN] was run?
The EC50 was 10800 nM.

Which EC50 [1] does the source give for `Cc1ccc(S(=O)(=O)Nc2nc3ccccc3nc2C2CCOCC2)cc1` here?
The EC50 was 930 nM.

For `O=P(O)(CCP(=O)(O)c1ccccc1)c1ccccc1`, which EC50 [1] is on record?
The EC50 was 1000 nM.
